Reference: patent publication US11247987B2, “Inhibiting ubiquitin specific peptidase 30” (FORMA Therapeutics, Inc., priority 2017, dated 2022)

What follows are compounds tested against T1, human recombinant USP30 (Homo sapiens, UniProt Q70CQ3) (assay: Ubiquitin-Rhodamine 110 Assay for USP30 Activity (USP30 Inhibitor Biochemical Assay)). Conditions: 0.2 nM USP30, 25 nM Ub-Rh110, 30 min preincubation, 30 min at room temperature; read-out: USP30 potency range (USP30 biochemical IC50 assay, IC50 ranges).
T1 construct: purchased Boston Biochem E-582
T1 sequence (Q70CQ3 1-517): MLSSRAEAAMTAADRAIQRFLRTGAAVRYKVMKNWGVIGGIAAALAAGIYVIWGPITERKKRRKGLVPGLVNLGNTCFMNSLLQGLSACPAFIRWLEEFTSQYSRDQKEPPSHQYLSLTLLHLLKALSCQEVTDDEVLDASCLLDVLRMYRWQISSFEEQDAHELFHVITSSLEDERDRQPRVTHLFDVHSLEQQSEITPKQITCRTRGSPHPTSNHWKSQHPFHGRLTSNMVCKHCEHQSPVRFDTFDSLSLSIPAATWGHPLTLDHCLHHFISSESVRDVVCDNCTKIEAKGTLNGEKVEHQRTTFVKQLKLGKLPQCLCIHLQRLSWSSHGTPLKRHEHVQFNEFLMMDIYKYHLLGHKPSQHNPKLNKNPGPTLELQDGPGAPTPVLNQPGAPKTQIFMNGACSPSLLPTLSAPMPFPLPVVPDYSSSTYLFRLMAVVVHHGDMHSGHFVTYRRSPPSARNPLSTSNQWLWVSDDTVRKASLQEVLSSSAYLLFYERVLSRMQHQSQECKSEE
Description: Example A: Biochemical Assay: Ubiquitin-Rhodamine 110 Assay for USP30 Activity (USP30 Inhibitor Biochemical Assay)
The assay was performed in a final volume of 9 μL in assay buffer containing 20 mM Tris-HCl (pH 8.0, (1M Tris-HCl, pH 8.0 solution; Corning 46-031-CM)), 1 mM GSH (L-glutathione reduced, Sigma-Aldrich, G4251-100G), 0.03% BGG (0.22 μM filtered, Sigma, G7516-25G), and 0.01% Triton X-100 (Sigma, T9284-10L). Nanoliter quantities of 10-point, 3-fold serial dilution in DMSO were pre-dispensed into 1536 assay plates (Corning, #3724BC) for a final test concentration of 25 μM to 1.3 nM, top to lowest dose, respectively. Concentration and incubation times were optimized for the maximal signal-to-background while maintaining initial velocity conditions at a fixed substrate concentration. The final concentration of USP30 (human recombinant USP30, Boston Biochem, cat. # E-582) in the assay was 0.2 nM. […] 3 μL of 2×USP30 was added to assay plates (pre-stamped with compound), preincubated for 30 minutes and then treated with 3 μL of 2×Ub-Rh110. Plates were incubated for 30 minutes at room temperature before addition of 3 μL of stop solution (final concentration of 10 mM citric acid (Sigma, 251275-500G)). Fluorescence was read on the Envision (excitation at 485 nm and emission at 535 nm; Perkin Elmer) or on the PheraSTAR (excitation at 485 nm and emission at 535 nm; BMG Labtech).
For all assay formats data were reported as percent inhibition compared with control wells based on the following equation: % inh=1−((FLU−AveLow)/(AveHigh−AveLow)) where FLU=measured Fluorescence, AveLow=average Fluorescence of no enzyme control (n=16), and AveHigh=average Fluorescence of DMSO control (n=16). IC50 values were determined by curve fitting of the standard 4 parameter logistic fitting algorithm included in the Activity Base software package: IDBS XE Designer Model205. Data is fitted using the Levenburg Marquardt algorithm.

Row | Structure (SMILES) | IC50
1 | CN(c1cc(-c2cccc(Cl)c2)on1)C(=O)[C@H]1C[C@H](NC#N)C1 [Compound 1-52, (1r,3r)-N-[5-(3-chlorophenyl)-1,2-oxazol-3-yl]-3-(cyanoamino)-N-methylcyclobutane-1-carboxamide] | 100 to 1000 nM
2 | N#CN[C@H]1C[C@H](C(=O)Nc2ccc(Cl)c(C(F)(F)F)c2)C1 [Compound 1-20, (1r,3r)-N-[4-chloro-3-(trifluoromethyl)phenyl]-3-(cyano-amino)cyclobutane-1-carboxamide] | 1000 to 10000 nM
3 | Cn1nc(-c2ccccc2)cc1NC(=O)[C@H]1C[C@H](NC#N)C1 [Compound 1-2, (1r,3r)-3-(cyanoamino)-N-(1-methyl-3-phenyl-1H-pyrazol-5-yl)cyclobutane-1-carboxamide] | 100 to 1000 nM
4 | CN(c1nc(Cl)c(C2CCCCC2)s1)C(=O)[C@]1(F)C[C@H](NC#N)C1 [Compound 1-55, (1r,3r)-N-(4-chloro-5-cyclohexyl-1,3-thiazol-2-yl)-3-(cyanoamino)-1-fluoro-N-methylcyclobutane-1-carboxamide] | < 100 nM
5 | N#CN[C@H]1C[C@H](C(=O)Nc2sc(C3CCCCC3)nc2F)C1 [Compound 1-17, (1r,3r)-3-(cyanoamino)-N-(2-cyclohexyl-4-fluoro-1,3-thiazol-5-yl)cyclobutane-1-carboxamide] | 100 to 1000 nM
6 | CN(c1cc(-c2cccc(Cl)c2)no1)C(=O)[C@H]1C[C@H](NC#N)C1 [Compound 1-45, (1r,3r)-N-[3-(3-chlorophenyl)-1,2-oxazol-5-yl]-3-(cyanoamino)-N-methylcyclobutane-1-carboxamide] | 100 to 1000 nM
7 | N#CN[C@H]1CC[C@H](C(=O)Nc2ncc(-c3ccccc3)s2)C1 [Compound 12-4, (1S,3S)-3-(cyanoamino)-N-(5-phenyl-1,3-thiazol-2-yl)cyclopentane-1-carboxamide] | 1000 to 10000 nM
8 | N#CN[C@H]1C[C@H](C(=O)Nc2cc(C(F)(F)F)ccn2)C1 [Compound 1-27, (1r,3r)-3-(cyanoamino)-N-[4-(trifluoro-methyl)pyridin-2-yl]cyclobutane-1-carboxamide] | 100 to 1000 nM
9 | CC(C)(C)c1sc(NC(=O)[C@H]2C[C@H](NC#N)C2)nc1Cl [Compound 1-19, (1r,3r)-N-(5-tert-butyl-4-chloro-1,3-thiazol-2-yl)-3-(cyanoamino)cyclo-butane-1-carboxamide] | < 100 nM
10 | N#CN[C@H]1C[C@H](C(=O)Nc2ncc(-c3cccc(C#N)c3)s2)C1 [Compound 1-40, (1r,3r)-3-(cyanoamino)-N-[5-(3-cyanophenyl)-1,3-thiazol-2-yl]cyclobutane-1-carboxamide] | 100 to 1000 nM
11 | N#CN[C@H]1CC[C@H](C(=O)Nc2ncc(C3CCOCC3)s2)C1 [Compound 10-10, (1S,3S)-3-(cyanoamino)-N-[5-(oxan-4-yl)-1,3-thiazol-2-yl]cyclopentane-1-carboxamide] | 1000 to 10000 nM
12 | N#CN[C@H]1CCC[C@H](C(=O)Nc2ncc(C3CCCCC3)s2)C1 [Compound 10-5, (1S,3S)-3-(cyanoamino)-N-(5-cyclohexyl-1,3-thiazol-2-yl)cyclohexane-1-carboxamide] | > 25000 nM
13 | N#CN[C@H]1C[C@H](C(=O)Nc2nc(-c3ccc(Cl)cc3)cs2)C1 [Compound 1-68, (1r,3r)-N-[4-(4-chlorophenyl)-1,3-thiazol-2-yl]-3-(cyanoamino)cyclo-butane-1-carboxamide] | 100 to 1000 nM
14 | N#CN[C@H]1C[C@@H](C(=O)N2CCN(c3ccccc3)CC2)C1 [Compound 5-11, {[cis-3-(4-phenylpiperazine-1-carbonyl)cyclobutyl]amino} carbonitrile] | 10000 to 25000 nM
15 | CC(C)c1ccc(CNC(=O)[C@H]2C[C@H](NC#N)C2)cc1 [Compound 1-70, (1r,3r)-3-(cyanoamino)-N-{[4-(propan-2-yl)phenyl]methyl} cyclobutane-1-carboxamide] | < 100 nM
16 | N#CN[C@H]1C[C@H](C(=O)Nc2cc(Cl)cc(C3CCCCC3)c2)C1 [Compound 1-62, (1r,3r)-N-(3-chloro-5-cyclohexylphenyl)-3-(cyanoamino)cyclo-butane-1-carboxamide] | < 100 nM
17 | N#CN[C@H]1C[C@](F)(C(=O)Nc2nc3cccc(OC4CCC4)c3s2)C1 [Compound 1-66, (1s,3s)-3-(cyanoamino)-N-(7-cyclobutoxy-1,3-benzothiazol-2-yl)-1-fluorocyclobutane-1-carboxamide] | 100 to 1000 nM
18 | N#CN[C@H]1C[C@H](C(=O)Nc2cccc(-c3ccccc3)c2)C1 [Compound 1-69, (1r,3r)-3-(cyanoamino)-N-(3-phenylphenyl)cyclo-butane-1-carboxamide] | 100 to 1000 nM
19 | CN(c1nc(Cl)c(C(C)(C)C)s1)C(=O)[C@]1(F)C[C@H](NC#N)C1 [Compound 1-54, (1r,3r)-N-(5-tert-butyl-4-chloro-1,3-thiazol-2-yl)-3-(cyanoamino)-1-fluoro-N-methylcyclobutane-1-carboxamide] | < 100 nM
20 | N#CN[C@H]1C[C@H](C(=O)Nc2cc(-c3cccc(Cl)c3)no2)C1 [Compound 1-41, (1r,3r)-N-[3-(3-chlorophenyl)-1,2-oxazol-5-yl]-3-(cyanoamino)cyclo-butane-1-carboxamide] | 100 to 1000 nM
21 | N#CN[C@H]1C[C@@H](C(=O)Nc2ccc3c(c2)CCC3)C1 [Compound 5-9, cis-3-(cyanoamino)-N-(2,3-dihydro-1H-inden-5-yl)cyclobutane-1-carboxamide] | 1000 to 10000 nM
22 | N#CN[C@H]1C[C@H](C(=O)Nc2ncc([C@H]3CCCC[C@H]3C(F)(F)F)s2)C1 [Compound 1-32, (1r,3r)-3-(cyanoamino)-N-{5-[(1S,2R)-2-(trifluoromethyl)cyclo-hexyl]-1,3-thiazol-2-yl}cyclobutane-1-carboxamide] | 100 to 1000 nM
23 | CC1(C)[C@H](NC#N)C[C@H]1C(=O)Nc1cnc(C2CCCCC2)s1 [Compound 1-15, (1R,3R)-3-(cyanoamino)-N-(2-cyclohexyl-1,3-thiazol-5-yl)-2,2-dimethylcyclobutane-1-carboxamide] | 100 to 1000 nM
24 | N#CNC1CCN(C(=O)c2csc(-c3ccc(Cl)cc3Cl)n2)CC1 [Compound 12-9, ({1-[2-(2,4-dichlorophenyl)-1,3-thiazole-4-carbonyl]piperidin-4-yl}amino)carbonitrile] | 1000 to 10000 nM
25 | CN(c1nc(Cl)c(C2CCCCC2)s1)C(=O)[C@]1(F)C[C@@H](NC#N)C1 [Compound 1-58, (1s,3s)-N-(4-chloro-5-cyclohexyl-1,3-thiazol-2-yl)-3-(cyanoamino)-1-fluoro-N-methylcyclobutane-1-carboxamide] | 100 to 1000 nM
26 | N#CN[C@H]1C[C@H](C(=O)Nc2ncc([C@@H]3CCCCO3)s2)C1 [Compound 1-28, (1r,3r)-3-(cyanoamino)-N-{5-[(2S)-oxan-2-yl]-1,3-thiazol-2-yl}cyclobutane-1-carboxamide] | 1000 to 10000 nM
27 | N#CN[C@H]1C[C@@H](C(=O)Nc2ncc(-c3ccccc3)s2)C1 [Compound 5-4, cis-3-(cyanoamino)-N-(5-phenyl-1,3-thiazol-2-yl)cyclobutane-1-carboxamide] | 1000 to 10000 nM
28 | C[C@]1(C(=O)Nc2cnc(C3CCCCC3)s2)C[C@H](NC#N)C1 [Compound 1-11, (1r,3s)-3-(cyanoamino)-N-(2-cyclohexyl-1,3-thiazol-5-yl)-1-methylcyclobutane-1-carboxamide] | < 100 nM
29 | N#CN[C@H]1C[C@@](F)(C(=O)Nc2nc3cccc(OC4CCC4)c3s2)C1 [Compound 1-65, (1r,3r)-3-(cyanoamino)-N-(7-cyclobutoxy-1,3-benzothiazol-2-yl)-1-fluorocyclobutane-1-carboxamide] | < 100 nM
